Data: PubChem BioAssay AID2060338 (Molecular Pharmacology Branch, DTP, NCI, 2025)
Where “and” joins values, the source holds several entries; their conditions need not be identical. Equal values may be shown once.

Tested on: 556581-035-R-J1-PDC spheroids with HUVEC/MSC, viability
Assay: Anticancer human tumor 556581-035-R-J1-PDC patient-derived ovarian carcinoma cell line growth inhibition [IpAb]
Conditions: for viability, T/C: stronger effect = lower value
Outline: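 Multi-cell spheroids of 60% tumour cells, 25% HUVEC and 15% MSC in ultra-low-attachment U-bottom wells, treated with agents combined with ipatasertib or abemaciclib. Half-log ranges top out near clinical Cmax, or 10 microM when Cmax is unknown.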

[1] = curve of first compound, second compound 0.1 µM
[2] = curve of first compound, second compound 0.316 µM
[3] = curve of first compound, second compound 1 µM
[4] = curve of first compound, second compound 0.01 µM
[5] = curve of first compound, second compound 0.0316 µM
[6] = second compound 0.01 µM, first compound 0.00949 µM
[7] = second compound 0.01 µM, first compound 0.03 µM
[8] = second compound 0.01 µM, first compound 0.0949 µM
[9] = second compound 0.01 µM, first compound 0.3 µM
[10] = second compound 0.0316 µM, first compound 0.00949 µM
[11] = second compound 0.0316 µM, first compound 0.03 µM
[12] = second compound 0.0316 µM, first compound 0.0949 µM
[13] = second compound 0.0316 µM, first compound 0.3 µM
[14] = second compound 0.1 µM, first compound 0.00949 µM
[15] = second compound 0.1 µM, first compound 0.03 µM
[16] = second compound 0.1 µM, first compound 0.0949 µM
[17] = second compound 0.1 µM, first compound 0.3 µM
[18] = second compound 0.316 µM, first compound 0.00949 µM
[19] = second compound 0.316 µM, first compound 0.03 µM
[20] = second compound 0.316 µM, first compound 0.0949 µM
[21] = second compound 0.316 µM, first compound 0.3 µM
[22] = second compound 1 µM, first compound 0.00949 µM
[23] = second compound 1 µM, first compound 0.03 µM
[24] = second compound 1 µM, first compound 0.0949 µM
[25] = second compound 1 µM, first compound 0.3 µM
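Further: spheroids exposed to compounds for 7 days before readout.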

Cc1nc(NC(=O)N2CCCC2C(N)=O)sc1-c1ccnc(C(C)(C)C(F)(F)F)c1 (stereo not drawn) + CC(C)NCC(C(=O)N1CCN(c2ncnc3c2C(C)CC3O)CC1)c1ccc(Cl)cc1
IC50 [1]: 504 nM
IC50 [2]: 206 nM
IC50 [3]: 48.4 nM
IC50 (curve of first compound, second compound 3.16 µM): < 31.6 nM
IC50 (curve of first compound, second compound 10 µM): < 31.6 nM
viability, T/C (second compound 0.1 µM, first compound 0.0316 µM): 81.8%
viability, T/C (second compound 0.1 µM, first compound 0.1 µM): 68.6%
viability, T/C (second compound 0.1 µM, first compound 0.316 µM): 56.8%
viability, T/C (second compound 0.1 µM, first compound 1 µM): 38.8%
viability, T/C (second compound 0.1 µM, first compound 3.16 µM): 31%
viability, T/C (second compound 0.1 µM, first compound 10 µM): 11.3%
viability, T/C (second compound 0.316 µM, first compound 0.0316 µM): 62%
viability, T/C (second compound 0.316 µM, first compound 0.1 µM): 57.6%
viability, T/C (second compound 0.316 µM, first compound 0.316 µM): 40.3%
viability, T/C (second compound 0.316 µM, first compound 1 µM): 39.2%
viability, T/C (second compound 0.316 µM, first compound 3.16 µM): 33%
viability, T/C (second compound 0.316 µM, first compound 10 µM): 11.3%
viability, T/C (second compound 1 µM, first compound 0.0316 µM): 48.5%
viability, T/C (second compound 1 µM, first compound 0.1 µM): 53.8%
viability, T/C (second compound 1 µM, first compound 0.316 µM): 39.8%
viability, T/C (second compound 1 µM, first compound 1 µM): 36.2%
viability, T/C (second compound 1 µM, first compound 3.16 µM): 27.4%
viability, T/C (second compound 1 µM, first compound 10 µM): 16.2%
viability, T/C (second compound 3.16 µM, first compound 0.0316 µM): 41.8%
viability, T/C (second compound 3.16 µM, first compound 0.1 µM): 43.2%
viability, T/C (second compound 3.16 µM, first compound 0.316 µM): 43.5%
viability, T/C (second compound 3.16 µM, first compound 1 µM): 35.6%
viability, T/C (second compound 3.16 µM, first compound 3.16 µM): 24.6%
viability, T/C (second compound 3.16 µM, first compound 10 µM): 10.7%
viability, T/C (second compound 10 µM, first compound 0.0316 µM): 38.6%
viability, T/C (second compound 10 µM, first compound 0.1 µM): 42.4%
viability, T/C (second compound 10 µM, first compound 0.316 µM): 35.7%
viability, T/C (second compound 10 µM, first compound 1 µM): 27.2%
viability, T/C (second compound 10 µM, first compound 3.16 µM): 22.9%
viability, T/C (second compound 10 µM, first compound 10 µM): 4.11%

CC(C)(C)c1cnc(CSc2cnc(NC(=O)C3CCNCC3)s2)o1 + CCN1CCN(Cc2ccc(Nc3ncc(F)c(-c4cc(F)c5nc(C)n(C(C)C)c5c4)n3)nc2)CC1
IC50 [4]: 154 nM
IC50 [5]: 114 nM
IC50 [1]: 67.8 nM
IC50 [2]: 45.4 nM
IC50 [3]: 13.1 nM
viability, T/C [6]: 103%
viability, T/C [7]: 122%
viability, T/C [8]: 84.5%
viability, T/C [9]: 2.06%
viability, T/C (second compound 0.01 µM, first compound 0.949 µM): 2.48%
viability, T/C (second compound 0.01 µM, first compound 3 µM): 2.1%
viability, T/C [10]: 115%
viability, T/C [11]: 103%
viability, T/C [12]: 59.2%
viability, T/C [13]: 5.51%
viability, T/C (second compound 0.0316 µM, first compound 0.949 µM): 1.33%
viability, T/C (second compound 0.0316 µM, first compound 3 µM): 0.97%
viability, T/C [14]: 93.8%
viability, T/C [15]: 93.9%
viability, T/C [16]: 31.8%
viability, T/C [17]: 1.38%
viability, T/C (second compound 0.1 µM, first compound 0.949 µM): 3.13%
viability, T/C (second compound 0.1 µM, first compound 3 µM): 1.36%
viability, T/C [18]: 83.5%
viability, T/C [19]: 73.7%
viability, T/C [20]: 7.97%
viability, T/C [21]: 1.31%
viability, T/C (second compound 0.316 µM, first compound 0.949 µM): 2.8%
viability, T/C (second compound 0.316 µM, first compound 3 µM): 3.38%
viability, T/C [22]: 55.7%
viability, T/C [23]: 35.4%
viability, T/C [24]: 3.81%
viability, T/C [25]: 1.87%
viability, T/C (second compound 1 µM, first compound 0.949 µM): 0.65%
viability, T/C (second compound 1 µM, first compound 3 µM): 1.32%

CC(=O)c1c(C)c2cnc(Nc3ccc(N4CCNCC4)cn3)nc2n(C2CCCC2)c1=O + CCN1CCN(Cc2ccc(Nc3ncc(F)c(-c4cc(F)c5nc(C)n(C(C)C)c5c4)n3)nc2)CC1
IC50 [4]: > 300 nM
IC50 [5]: > 300 nM
IC50 [1]: > 300 nM
IC50 [2]: > 300 nM
IC50 [3]: > 300 nM
viability, T/C (second compound 0.01 µM, first compound 0.000949 µM): 99.9%
viability, T/C (second compound 0.01 µM, first compound 0.003 µM): 106%
viability, T/C [6]: 117%
viability, T/C [7]: 100%
viability, T/C [8]: 82.7%
viability, T/C [9]: 88.3%
viability, T/C (second compound 0.0316 µM, first compound 0.000949 µM): 76.2%
viability, T/C (second compound 0.0316 µM, first compound 0.003 µM): 93.2%
viability, T/C [10]: 101%
viability, T/C [11]: 91.3%
viability, T/C [12]: 92.2%
viability, T/C [13]: 76.1%
viability, T/C (second compound 0.1 µM, first compound 0.000949 µM): 81.7%
viability, T/C (second compound 0.1 µM, first compound 0.003 µM): 84.4%
viability, T/C [14]: 82%
viability, T/C [15]: 87.3%
viability, T/C [16]: 80.2%
viability, T/C [17]: 89.1%
viability, T/C (second compound 0.316 µM, first compound 0.000949 µM): 89.5%
viability, T/C (second compound 0.316 µM, first compound 0.003 µM): 84.4%
viability, T/C [18]: 94.6%
viability, T/C [19]: 68.8%
viability, T/C [20]: 81.3%
viability, T/C [21]: 64%
viability, T/C (second compound 1 µM, first compound 0.000949 µM): 49.9%
viability, T/C (second compound 1 µM, first compound 0.003 µM): 57.8%
viability, T/C [22]: 46.6%
viability, T/C [23]: 55%
viability, T/C [24]: 49.8%
viability, T/C [25]: 54%

CC1(C)CCC(CN2CCN(c3ccc(C(=O)NS(=O)(=O)c4ccc(NCC5CCOCC5)c([N+](=O)[O-])c4)c(Oc4cnc5[nH]ccc5c4)c3)CC2)=C(c2ccc(Cl)cc2)C1
viability, T/C (compound 0.0316 µM): 105% and 99.1%
viability, T/C (compound 0.1 µM): 103% and 102%
viability, T/C (compound 0.316 µM): 95.2% and 99%
viability, T/C (compound 1 µM): 94% and 108%
viability, T/C (compound 3.16 µM): 105% and 97.4%
viability, T/C (compound 10 µM): 27.4% and 15.8%
IC50 (curve of compound): 6990 nM and 6180 nM

CCN1CCN(Cc2ccc(Nc3ncc(F)c(-c4cc(F)c5nc(C)n(C(C)C)c5c4)n3)nc2)CC1
viability, T/C (compound 1 µM): 52.7% [middle of 13 runs]
